Data reported in patent US11591341B2 (ALIGOS THERAPEUTICS, INC., priority 2019, dated 2023).

Tested on: HBV
Test: HBV-DNA Antiviral Assay Using HepG2.117 Cells (intracellular HBV DNA by qPCR)
Type: cell-based, hepatitis B virus (genotype D)
Details: Hepatitis B virus, HepG2.117
Procedure, shortened: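 HepG2.117 cells (genotype D HBV, Tet-off) were induced by doxycycline withdrawal and treated for 3 days with 9 concentrations in 4-fold dilution, 2% DMSO final. Intracellular HBV DNA was measured by qPCR against a standard curve, with ATPlite viability read in parallel. EC50, EC90 and CC50 came from fits against the DMSO control.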

Row | Structure (SMILES) | EC50 [nM]
1 | COc1ccc(-n2c(C(=O)NCc3cccc(OC)c3C)c3n(c2=O)CCN(C(=O)c2ccc(Br)c(Cl)c2)C3)cc1 [Example 155, 7-(4-bromo-3-chloro-benzoyl)-N-[(3-methoxy-2-methyl-phenyl)methyl]-2-(4-methoxyphenyl)-3-oxo-6,8-dihydro-5H-imidazo[1,5-a]pyrazine-1-carboxamide] | 100 to 500
2 | C[C@@H](c1ccccc1)N1C[C@H](O)Cn2c(c3n(c2=O)CCN(C(=O)c2ccc(Br)c(Cl)c2)C3)C1=O (stereo in doubt) [Example 238, (11SR)-4-(4-bromo-3-chloro-benzoyl)-11-hydroxy-13-[(1S)-1-phenylethyl]-4,7,9,13-tetrazatricyclo[7.5.0.0^2,7]tetradec-1-ene-8,14-dione] | 100 to 500
3 | O=C(NCCc1ccccc1)c1c2n(c(=O)n1-c1ccccc1)CCN(C(=O)c1ccc(Br)c(Cl)c1)C2 [Example 28, 7-(4-bromo-3-chloro-benzoyl)-3-oxo-2-phenyl-N-(2-phenylethyl)-6,8-dihydro-5H-imidazo[1,5-a]pyrazine-1-carboxamide] | 500 to 5000
4 | COc1ccc(-n2c(C(=O)NCc3ccc(OC)cc3OC)c3n(c2=O)CCN(C(=O)c2ccc(Br)c(Cl)c2)C3)cc1 [Example 143, 7-(4-bromo-3-chloro-benzoyl)-N-[(2,4-dimethoxyphenyl)methyl]-2-(4-methoxyphenyl)-3-oxo-6,8-dihydro-5H-imidazo[1,5-a]pyrazine-1-carboxamide] | < 100
5 | O=C(c1ccc(Br)c(Cl)c1)N1CCn2c(c3n(c2=O)C[C@H](CO)CN(Cc2ccccc2)C3=O)C1 (stereo in doubt) [Example 146, rac-(11R)-13-benzyl-4-(4-bromo-3-chloro-benzoyl)-11-(hydroxymethyl)-4,7,9,13-tetrazatricyclo[7.5.0.0^2,7]tetradec-1-ene-8,14-dione] | 100 to 500
6 | O=C(c1ccc(Br)c(Cl)c1)N1CCn2c(c3n(c2=O)C[C@H](F)CN(Cc2ccccc2)C3=O)C1 (stereo in doubt) [Example 200, rac-(11R)-13-benzyl-4-(4-bromo-3-chloro-benzoyl)-11-fluoro-4,7,9,13-tetrazatricyclo[7.5.0.0^2,7]tetradec-1-ene-8,14-dione] | 100 to 500
7 | COc1ccc(-n2c(C(=O)NCc3ccccc3)c3n(c2=O)CC(C2CC2)N(C(=O)c2ccc(Br)c(Cl)c2)C3)cc1 (racemic) [Example 280, rac-(6R)-N-benzyl-7-(4-bromo-3-chloro-benzoyl)-6-cyclopropyl-2-(4-methoxyphenyl)-3-oxo-6,8-dihydro-5H-imidazo[1,5-a]pyrazine-1-carboxamide] | 100 to 500
8 | CC1Cn2c(c(C(=O)NCc3ccccc3)n(-c3ccc(OC4CC4)cc3)c2=O)CN1C(=O)c1ccc(Br)c(Cl)c1 (racemic) [Example 301, rac-(6R)-N-benzyl-7-(4-bromo-3-chloro-benzoyl)-2-[4-(cyclopropoxy)phenyl]-6-methyl-3-oxo-6,8-dihydro-5H-imidazo[1,5-a]pyrazine-1-carboxamide] | 500 to 5000
9 | COc1ccc(-n2c(C(=O)NCc3ccccc3)c3n(c2=O)C[C@H](C)N(C(=O)c2ccc(Br)c(Cl)c2)C3)cc1 (racemic) [Example 199, rac-(6S)-N-benzyl-7-(4-bromo-3-chloro-benzoyl)-2-(4-methoxyphenyl)-6-methyl-3-oxo-6,8-dihydro-5H-imidazo[1,5-a]pyrazine-1-carboxamide] | 100 to 500
10 | C[C@@H](NC(=O)c1c2n(c(=O)n1-c1ccccc1)CCN(C(=O)c1ccc(Br)c(Cl)c1)C2)c1ccccc1 (stereo in doubt) [Example 37, 7-(4-bromo-3-chloro-benzoyl)-3-oxo-2-phenyl-N-[rac-(1R)-1-phenylethyl]-6,8-dihydro-5H-imidazo[1,5-a]pyrazine-1-carboxamide] | 500 to 5000
11 | COc1cccc(-n2c(C(=O)NCc3ccccc3)c3n(c2=O)CCN(C(=O)c2ccc(Br)c(Cl)c2)C3)c1 [Example 41, N-benzyl-7-(4-bromo-3-chloro-benzoyl)-2-(3-methoxyphenyl)-3-oxo-6,8-dihydro-5H-imidazo[1,5-a]pyrazine-1-carboxamide] | 500 to 5000
12 | CC(NC(=O)c1c2n(c(=O)n1-c1ccc(OCC(F)(F)F)cc1)CCN(C(=O)c1ccc(Br)c(Cl)c1)C2)c1ccc(OC2COC2)cc1F (racemic) [Example 348, 7-(4-bromo-3-chloro-benzoyl)-3-oxo-N-[rac-(1R)-1-[2-fluoro-4-(oxetan-3-yloxy)phenyl]ethyl]-2-[4-(2,2,2-trifluoroethoxy)phenyl]-6,8-dihydro-5H-imidazo[1,5-a]pyrazine-1-carboxamide] | 500 to 5000
13 | COc1ccc(-n2c(C(=O)NCc3cccc(F)c3)c3n(c2=O)CCN(C(=O)c2ccc(Br)c(Cl)c2)C3)cc1 [Example 125, 7-(4-bromo-3-chloro-benzoyl)-N-[(3-fluorophenyl)methyl]-2-(4-methoxyphenyl)-3-oxo-6,8-dihydro-5H-imidazo[1,5-a]pyrazine-1-carboxamide] | 100 to 500
14 | Cn1cnc2c(CNC(=O)c3c4n(c(=O)n3-c3ccc(OC5CC5)cc3)CCN(C(=O)c3ccc(Br)c(Cl)c3)C4)cccc21 [Example 399, 7-(4-bromo-3-chloro-benzoyl)-2-[4-(cyclopropoxy)phenyl]-N-[(1-methylbenzimidazol-4-yl)methyl]-3-oxo-6,8-dihydro-5H-imidazo[1,5-a]pyrazine-1-carboxamide] | 100 to 500
15 | C[C@@H](NC(=O)c1c2n(c(=O)n1-c1ccc(OCC(F)(F)F)cc1)CCN(C(=O)c1ccc(Br)c(Cl)c1)C2)c1ccc(OCC#N)cc1F (stereo in doubt) [Example 344, 7-(4-bromo-3-chloro-benzoyl)-3-oxo-N-[rac-(1R)-1-[4-(cyanomethoxy)-2-fluoro-phenyl]ethyl]-2-[4-(2,2,2-trifluoroethoxy)phenyl]-6,8-dihydro-5H-imidazo[1,5-a]pyrazine-1-carboxamide] | 500 to 5000
16 | CC(C)COc1ccc(-n2c(C(=O)NCc3ccccc3)c3n(c2=O)CCN(C(=O)c2ccc(Br)c(Cl)c2)C3)cc1 [Example 272, N-benzyl-7-(4-bromo-3-chloro-benzoyl)-2-(4-isobutoxyphenyl)-3-oxo-6,8-dihydro-5H-imidazo[1,5-a]pyrazine-1-carboxamide] | 100 to 500
17 | C[C@@H](NC(=O)c1c2n(c(=O)n1-c1ccc(-n3cccn3)cc1)CCN(C(=O)c1ccc(Br)c(Cl)c1)C2)c1ccccc1F (stereo in doubt) [Example 405, 7-(4-bromo-3-chloro-benzoyl)-3-oxo-2-(4-pyrazol-1-ylphenyl)-N-[rac-(1R)-1-(2-fluorophenyl)ethyl]-6,8-dihydro-5H-imidazo[1,5-a]pyrazine-1-carboxamide] | < 100
18 | COc1ccc(-n2c(C(=O)NCc3ccc(OC)cc3Cl)c3n(c2=O)CCN(C(=O)c2ccc(Cl)c(Cl)c2)C3)cc1 [Example 85, N-[(2-chloro-4-methoxy-phenyl)methyl]-7-(3,4-dichlorobenzoyl)-2-(4-methoxyphenyl)-3-oxo-6,8-dihydro-5H-imidazo[1,5-a]pyrazine-1-carboxamide] | 500 to 5000
19 | CC(C)Oc1ccc(-n2c(C(=O)NCc3ccccc3)c3n(c2=O)CCN(C(=O)c2ccc(Br)nc2)C3)cc1 [Example 223, N-benzyl-7-(6-bromopyridine-3-carbonyl)-2-(4-isopropoxyphenyl)-3-oxo-6,8-dihydro-5H-imidazo[1,5-a]pyrazine-1-carboxamide] | > 5000
20 | C[C@H](Oc1ccc(-n2c(C(=O)NCc3ccccc3)c3n(c2=O)CCN(C(=O)c2ccc(Br)c(Cl)c2)C3)cc1)C(F)(F)F (stereo in doubt) [Example 283, N-benzyl-7-(4-bromo-3-chloro-benozyl)-3-oxo-2-[4-[rac-(1S)-2,2,2-trifluoro-1-methyl-ethoxy]phenyl]-6,8-dihydro-5H-imidazo[1,5-a]pyrazine-1-carboxamide] | 500 to 5000
21 | N#Cc1cc(C(=O)N2CCn3c(c(C(=O)NCc4ccccc4-c4cccnn4)n(-c4ccc(OC5CC5)cc4)c3=O)C2)ccc1Br [Example 445, 7-(4-bromo-3-cyano-benzoyl)-2-[4-(cyclopropoxy)phenyl]-3-oxo-N-[(2-pyridazin-3-ylphenyl)methyl]-6,8-dihydro-5H-imidazo[1,5-a]yprazine-1-carboxamide] | 100 to 500
22 | COc1ccc(-n2c(C(=O)NCc3ccccc3OC)c3n(c2=O)CCN(C(=O)c2ccc(Cl)c(Cl)c2)C3)cc1 [Example 115, 7-(3,4-dichlorobenzoyl)-2-(4-methoxyphenyl)-N-[(2-methoxyphenyl)methyl]-3-oxo-6,8-dihydro-5H-imidazo[1,5-a]pyrazine-1-carboxamide] | 100 to 500
23 | C[C@H](NC(=O)c1c2n(c(=O)n1-c1ccc(OC3CC3)cc1)CCN(C(=O)c1ccc(Br)c(Cl)c1)C2)c1ccc(OCC(N)=O)cc1-n1cccn1 (racemic) [Example 378, 7-(4-bromo-3-chloro-benzoyl)-2-[4-(cyclopropoxy)phenyl]-3-oxo-N-[rac-(1S)-1-[4-(2-amino-2-oxo-ethoxy)-2-pyrazol-1-yl-phenyl]ethyl]-6,8-dihydro-5H-imidazo[1,5-a]pyrazine-1-carboxamide] | > 5000
24 | O=C(NCc1ccc(OC(F)F)cc1F)c1c2n(c(=O)n1-c1ccc(OC3CC3)cc1)CCN(C(=O)c1ccc(Br)c(Cl)c1)C2 [Example 297, 7-(4-bromo-3-chloro-benzoyl)-2-[4-(cyclopropoxy)phenyl]-N-[[4-(difluoromethoxy)-2-fluoro-phenyl]methyl]-3-oxo-6,8-dihydro-5H-imidazo[1,5-a]pyrazine-1-carboxamide] | 100 to 500
25 | CC(C)Oc1ccc(-n2c(C(=O)N[C@H](C)c3ccc(C#N)cc3)c3n(c2=O)CCN(C(=O)c2ccc(Br)c(Cl)c2)C3)cc1 (stereo in doubt) [Example 233, 7-(4-bromo-3-chloro-benzoyl)-2-(4-isopropoxyphenyl)-3-oxo-N-[rac-(1R)-1-(4-cyanophenyl)ethyl]-6,8-dihydro-5H-imidazo[1,5-a]pyrazine-1-carboxamide] | 100 to 500
